Assay results published in patent publication US5922697A, “Compounds, compositions and methods for inhibiting the binding of proteins containing an SH2 domain to cognate phosphorylated proteins” (Warner-Lambert Company, priority 1998, dated 1999).
Square brackets hold non-standard residues; d marks the D form. Peptide text beside a SMILES is read from it. * marks the point of attachment. pY = N[C@@H](Cc1ccc(OP(=O)(O)O)cc1)C(=O)O; NHPhenethyl = c1ccc(CCN*)cc1

Each compound was assayed against T1, Src SH2 (Homo sapiens, UniProt P12931) (assay: Inhibition of 125I-phosphopeptide binding to immobilized Src SH2). Details: IC50, SRC SH2 Binding, competitive 125I-phosphopeptide displacement, GST-Src SH2 fusion protein, pH 7.5, room temperature, 20 minutes.
T1 construct: glutathione-S-transferase(GST)-Src SH2 fusion protein
T1 sequence (P12931 151-248 limits assumed): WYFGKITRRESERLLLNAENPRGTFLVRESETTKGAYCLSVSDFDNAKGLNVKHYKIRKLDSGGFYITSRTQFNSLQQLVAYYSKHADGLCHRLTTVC
Protocol: The binding affinities of compounds of the present invention to Src SH2 was determined using a competitive radiolabeled phosphopeptide displacement assay.
Binding was performed at room temperature for 20 minutes while continuously inverting the plate. […] Results are expressed as IC50 values in Table 1 below.

NC(=O)c1cc(CNC(=O)c2ccc(OP(=O)(O)O)cc2)ccc1OCc1ccccc1 [Example 39, Phosphoric acid mono-[4-(4-benzyloxy-3-carbamoyl-benzylcarbamoyl)-phenyl] ester] and Cc1cccc(COc2ccc(CNC(=O)c3ccc(OP(=O)(O)O)cc3)cc2C(N)=O)c1 [Example 40, Phosphoric acid mono-{4-[3-carbamoyl-4-(3-methyl-benzyloxy)-benzylcarbamoyl]-phenyl} ester] are within 1.5-fold of each other in IC50: 9.7 µM for the first, 7 µM for the second.

Compared with CC(=O)N[C@@H](Cc1ccc(OP(=O)(O)O)cc1)C(=O)N[C@@H](CCC(=O)O)C(=O)NCCc1ccccc1 [Example 16, [S-(R*,R*)]-4-[2-Acetylamino-3-(4-phosphonooxy-phenyl)-propionylamino]-4-phenethylcarbamoyl-butyric acid] (Ac-[pY]-Glu-NHPhenethyl), CC(=O)N[C@@H](Cc1ccc(OP(=O)(O)O)cc1)C(=O)N[C@@H](CCC(=O)O)C(=O)N[C@@H](C)Cc1ccccc1 [Example 18, 4-[(S)-2-Acetylamino-3-(4-phosphonooxy-phenyl)-(S)-propionylamino]-4-((S)-1-methyl-2-phenylethylcarbamoyl)-butyric acid] is 3-fold lower in IC50: 9.8 µM for the first, 3.3 µM for the second.

CC(=O)N[C@@H](Cc1ccc(OP(=O)(O)O)cc1)C(=O)N[C@@H](C)C(=O)N(CCCC(=O)O)CCCC1CCCCC1 [Example 25, [S-(R*,R*)]-4-[{2-[2-Acetylamino-3-(4-phosphonooxy-phenyl)-propionylamino}-propionyl]-(3-cyclohexylpropyl)-amino]-butyric acid] and CCCC[C@H](NC(=O)[C@H](Cc1ccc(OP(=O)(O)O)cc1)NC(C)=O)C(=O)N(C)CCCC1CCCCC1 [Example 9, [S-(R*,R*)]-Phosphoric acid mono-[4-(2-acetylamino-2-{1-[(3-cyclohexyl-propyl)-methyl-carbamoyl]-pentylcarbamoyl}-ethyl)-phenyl] ester] are within 1.5-fold of each other in IC50: 7.1 µM for the first, 6.2 µM for the second.

CC(=O)N(C)C(Cc1ccc(OP(=O)(O)O)cc1)C(=O)N[C@@H](CCC(=O)O)C(=O)NCCCc1ccccc1 (stereo partly drawn) [Example 32, 4-[(RS)-2-(Acetyl-methyl-amino)-3-(4-phosphonooxy-phenyl)-(S)-propionylamino]-4-(3-phenylpropylcarbamoyl)-butyric acid] and CS(=O)(=O)N[C@@H](Cc1ccc(OP(=O)(O)O)cc1)C(=O)N[C@@H](CCC(=O)O)C(=O)NCCCc1ccccc1 [Example 33, [S-(R*,R*)]-4-[2-Methanesulfonylamino-3-(4-phosphonooxy-phenyl)-propionylamino]-4-(3-phenyl-propylcarbamoyl)-butyric acid] are within 1.5-fold of each other in IC50: 9.2 µM for the first, 9.3 µM for the second.

Compared with NC(=O)c1cc(CNC(=O)c2ccc(OP(=O)(O)O)c(Cl)c2)ccc1OCC1CCCCC1 [Example 47, Phosphoric acid mono-[4-(3-carbamoyl-4-cyclohexyl-methoxy-benzylcarbamoyl)-2-chloro-phenyl] ester], Cc1cc(C(=O)NCc2ccc(OCC3CCCCC3)c(C(N)=O)c2)cc(C)c1OP(=O)(O)O [Example 46, Phosphoric acid mono-[4-(3-carbamoyl-4-cyclohexyl-methoxy-benzylcarbamoyl)-2,6-dimethyl-phenyl] ester] is 1.6-fold lower in IC50: about 20 µM for the first, 12.5 µM for the second.

Compared with CNC(=O)c1cc(CNC(=O)c2ccc(OP(=O)(O)O)cc2)ccc1OCC1CCCCC1 [Example 48, Phosphoric acid mono-[4-(4-cyclohexylmethoxy-3-methylcarbamoyl-benzylcarbamoyl)-phenyl] ester], CC(=O)N[C@@H](Cc1ccc(OP(=O)(O)O)cc1)C(=O)NCc1ccc(OCC2CCCCC2)c(C(=O)NN)c1 [Example 71, (S)-Phosphoric acid mono-{4-[2-acetylamino-2-(4-cyclohexylmethoxy-3-hydrazinocarbonyl-benzylcarbamoyl)-ethyl]-phenyl} ester] is 1.7-fold lower in IC50: about 30 µM for the first, 18 µM for the second.

First: CC(=O)N[C@@H](Cc1ccc(OP(=O)(O)O)cc1)C(=O)N[C@@H](CCC(=O)O)C(=O)NCCC12CC3CC(CC(C3)C1)C2 [Example 56, [S-(R*,R*)]-4-[2-Acetylamino-3-(4-phosphonooxy-phenyl)-propionylamino]-4-(2-adamantan-1-yl-ethylcarbamoyl)-butyric acid]
Second: CC(=O)N[C@@H](Cc1ccc(OP(=O)(O)O)cc1)C(=O)N[C@@H](CCC(=O)O)C(=O)NCCCCC(C)C (relative stereo) [Example 37, [S -(R*,R*)]-4-[2-Acetylamino-3-(4-phosphonooxy-phenyl)-propionylamino]-4-(5-methyl-hexylcarbamoyl)-butyric acid]
The IC50 of the first is 1.8-fold lower: 3.8 µM for the first, 6.7 µM for the second. The first is the more potent here.

First: CCC(C)CCCOc1ccc(CNC(=O)c2ccc(OP(=O)(O)O)cc2)cc1C(N)=O (stereo not shown) [Example 43, Phosphoric acid mono-{4-[3-carbamoyl-4-(4-methyl-hexyloxy) -benzylcarbamoyl]-phenyl} ester]
Second: CC(C)CCCOc1ccc(CNC(=O)c2ccc(OP(=O)(O)O)cc2)cc1C(N)=O [Example 42, Phosphoric acid mono-{4-[3-carbamoyl-4-(4-methyl-pentyloxy)-benzylcarbamoyl]-phenyl} ester]
The IC50 of the first is 1.5-fold lower: about 20 µM for the first, about 30 µM for the second.

CC(=O)N[C@@H](Cc1ccc(OP(=O)(O)O)cc1)C(=O)NCc1ccc(OCC2CCCCC2)c(C(N)=O)c1 [Example 49, (S)-Phosphoric acid mono-{4-[2-acetylamino-2-(3-carbamoyl-4-cyclohexylmethoxy-benzylcarbamoyl)-ethyl]-phenyl} ester] and CNC(=O)N[C@@H](Cc1ccc(OP(=O)(O)O)cc1)C(=O)NCc1ccc(OCC2CCCCC2)c(C(N)=O)c1 [Example 52] are within 1.5-fold of each other in IC50: 8.5 µM for the first, 6.2 µM for the second.

CCCCN(CCCc1ccccc1)C(=O)[C@H](C)NC(=O)[C@H](Cc1ccc(OP(=O)(O)O)cc1)NC(C)=O [Example 28, [S-(R*,R*)]-Phosphoric acid mono-[4-(2-acetylamino-2-{1-[butyl-(3-phenyl-propyl)-carbamoyl]-ethylcarbamoyl}-ethyl)-phenyl] ester] and CC(=O)N[C@@H](Cc1ccc(OP(=O)(O)O)cc1)C(=O)N[C@@H](C)C(=O)N(CCCC(=O)O)CCCc1ccccc1 [Example 26, [S-(R*,R*)]-4-[{2-[2-Acetylamino-3-(4-phosphonooxy-phenyl)-propionylamino}-propionyl]-(3-phenyl-propyl)-amino]-butyric acid] are within 1.5-fold of each other in IC50: 12 µM for the first, 9.8 µM for the second.

COc1ccccc1CCN(C)C(=O)[C@H](CCC(=O)O)NC(=O)[C@H](Cc1ccc(OP(=O)(O)O)cc1)NC(C)=O [Example 23, [S-(R*,R*)]-4-[2-Acetylamino-3-(4-phosphonooxy-phenyl)-propionylamino]-4-{[2-(2-methoxy-phenyl)-ethyl]-methyl-carbamoyl}-butyric acid] and CC(=O)N[C@@H](Cc1ccc(OP(=O)(O)O)cc1)C(=O)N[C@@H](CCC(=O)O)C(=O)N(C)CCCc1ccccc1 [Example 19, [S-(R*,R*)]-4-[2-Acetylamino-3-(4-phosphonooxy-phenyl)-propionylamino]-4-[methyl-(3-phenyl-propyl)-carbamoyl]-butyric acid] are within 1.5-fold of each other in IC50: 6.2 µM for the first, 5.6 µM for the second.

Going from CC(=O)N[C@@H](Cc1ccc(OP(=O)(O)O)cc1)C(=O)N[C@@H](CCC(=O)O)C(=O)NCCCc1ccc(OCC(=O)O)cc1 [Example 29, [S-(R*,R*)]-4-[2-Acetylamino-3-(4-phosphonooxy-phenyl)-propionylamino]-4-[3-(4-carboxymethoxy-phenyl)-propylcarbamoyl]-butyric acid] to CC(=O)N[C@@H](Cc1ccc(OP(=O)(O)O)cc1)C(=O)N[C@@H](CCC(=O)O)C(=O)N1CCC[C@H]1Cc1ccccc1 [Example 30], the IC50 falls from 8.3 µM to 5.5 µM (1.5-fold).

First: CC(=O)N[C@@H](Cc1ccc(OP(=O)(O)O)cc1)C(=O)N[C@@H](CCC(=O)O)C(=O)N[C@@H](C)CC1CCCCC1 [Example 2, 4-[(S)-2-Acetylamino-3-(4-phosphonooxy-phenyl)-(S)-propionylamino]-4-(2-cyclohexyl-(S)-1-methylethylcarbamoyl)-butyric acid]
Second: CC(=O)N[C@@H](Cc1ccc(C(F)(F)P(=O)(O)O)cc1)C(=O)NCc1ccc(OCC2CCCCC2)c(C(N)=O)c1 [Example 53, (S)-{4-[2-Acetylamino-2-(3-carbamoyl-4-cyclohexyl-methoxy-benzylcarbamoyl)-ethyl]-phenyl}-difluoro-methyl-phosphonic acid]
The IC50 of the first is 5-fold lower: 2.4 µM for the first, 12.1 µM for the second. The first is the more potent here.

Work on Cc1cc(C)cc(COc2ccc(CNC(=O)c3ccc(OP(=O)(O)O)cc3)cc2C(N)=O)c1 [Example 41, Phosphoric acid mono-{4-[3-carbamoyl-4-(3,5-dimethyl-benzyloxy)-benzylcarbamoyl]-phenyl} ester] yielded an IC50 of 6.6 µM.

Same assay, conditions: competitive 125I-phosphopeptide displacement, GST-Src SH2 fusion protein, pH 7.5, room temperature, 20 minutes; read-out: IC50, SRC SH2 Binding

First: NC(=O)c1cc(CNC(=O)c2ccc(OP(=O)(O)O)cc2)ccc1OCC1CCCCC1 [Example 44, Phosphoric acid mono-[4-(3-carbamoyl-4-cyclohexyl-methoxy-benzylcarbamoyl)-phenyl] ester]
Second: CC(=O)N[C@@H](Cc1ccc(OP(=O)(O)O)cc1)C(=O)N[C@@H](CCC(=O)O)C(=O)NCCCc1ccccc1 [Example 14, [S-(R*,R*)]-4-[2-Acetylamino-3-(4-phosphonooxy-phenyl)-propionylamino]-4-(3-phenyl-propylcarbamoyl)-butyric acid]
The IC50 of the first is 1.5-fold lower: 6.5 µM for the first, 10 µM for the second.

CC(=O)N[C@@H](Cc1ccc(OP(=O)(O)O)cc1)C(=O)N[C@@H](Cc1ccc(O)cc1)C(=O)NCCCc1ccccc1 [Example 20, [S-(R*,R*)]-Phosphoric acid mono-(4-{2-acetylamino-2-[2-(4-hydroxy-phenyl)-1-(3-phenyl-propylcarbamoyl)-ethyl-carbamoyl]-ethyl}-phenyl) ester] was tested, and the IC50 was 20 µM.

Same assay, conditions: read-out: IC50, SRC SH2 Binding; competitive 125I-phosphopeptide displacement, GST-Src SH2 fusion protein, pH 7.5, room temperature, 20 minutes

Work on COc1ccccc1CCNC(=O)[C@H](CCC(=O)O)NC(=O)[C@H](Cc1ccc(OP(=O)(O)O)cc1)NC(C)=O [Example 21, [S-(R*,R*)]4-[2-Acetylamino-3-(4-phosphonooxy-phenyl)-propionylamino]-4-[2-(2-methoxy-phenyl)-ethylcarbamoyl]-butyric acid] yielded an IC50 of 5.5 µM.
